Experimental data taken from US9919060B2 (University Court of the University of Dundee, priority 2009, dated 2018).

Tests used:
[1] = tested on: wild-type CHO cells
[2] = target: T1, CYP1B1 (Homo sapiens, UniProt Q16678); assay: CYP1B1 substrate prediction model (Gaussian Kernel weighted k-NN)
T1 sequence (Q16678 1-543): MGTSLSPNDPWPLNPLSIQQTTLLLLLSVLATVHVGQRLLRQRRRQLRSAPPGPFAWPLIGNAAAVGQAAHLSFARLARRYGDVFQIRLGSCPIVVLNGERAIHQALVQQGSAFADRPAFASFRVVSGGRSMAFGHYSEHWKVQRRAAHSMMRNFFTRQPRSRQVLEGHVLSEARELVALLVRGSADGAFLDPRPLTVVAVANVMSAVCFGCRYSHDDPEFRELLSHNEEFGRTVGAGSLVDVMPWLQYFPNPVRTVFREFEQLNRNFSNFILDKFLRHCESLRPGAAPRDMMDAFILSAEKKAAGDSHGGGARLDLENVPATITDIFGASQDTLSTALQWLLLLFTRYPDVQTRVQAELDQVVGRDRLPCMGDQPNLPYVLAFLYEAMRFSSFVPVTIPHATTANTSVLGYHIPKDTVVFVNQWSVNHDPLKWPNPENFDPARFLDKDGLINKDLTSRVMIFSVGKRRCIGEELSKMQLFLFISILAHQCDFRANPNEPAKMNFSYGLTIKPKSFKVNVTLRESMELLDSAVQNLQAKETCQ

[3] = target: T2, CYP1A1 (Homo sapiens, UniProt P04798); settings: TMS 10 nmol dm^−3; without inhibitor 21 ± 3
T2 sequence (P04798 1-512): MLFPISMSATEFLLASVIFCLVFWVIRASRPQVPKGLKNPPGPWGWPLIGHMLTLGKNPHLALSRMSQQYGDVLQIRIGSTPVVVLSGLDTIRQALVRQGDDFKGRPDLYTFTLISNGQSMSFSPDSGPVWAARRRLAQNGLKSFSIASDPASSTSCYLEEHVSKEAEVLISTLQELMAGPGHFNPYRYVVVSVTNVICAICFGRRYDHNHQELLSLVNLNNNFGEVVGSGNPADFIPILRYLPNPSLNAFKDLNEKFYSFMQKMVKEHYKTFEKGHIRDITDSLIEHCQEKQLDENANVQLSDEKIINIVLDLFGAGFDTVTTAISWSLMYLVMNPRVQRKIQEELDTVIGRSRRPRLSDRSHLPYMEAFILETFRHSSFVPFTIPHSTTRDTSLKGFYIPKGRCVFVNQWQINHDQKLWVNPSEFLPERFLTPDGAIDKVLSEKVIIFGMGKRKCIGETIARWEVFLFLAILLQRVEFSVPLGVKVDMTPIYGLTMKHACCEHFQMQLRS

[4] = target: T2, CYP1A1; type: cell-based; settings: TMS 10 nmol dm^−3; without inhibitor 29 ± 4
Protocol: (§1) Dihydrofolate reductase (DHFR) gene amplification of either human cDNA CYP1A1 or cDNA CYP1B1 in CHO cells was used to achieve high levels of functional enzyme when co-expressed with human P450 reductase (ibid.; Ding S, et al., Biochem J., 356(Pt 2): 613-9, 2001). […] The resulting cell lines were analysed for CYP1A1 or CYP1B1 expression by immunoblotting. […]
(§2) The ethoxyresorufin O-deethylation (EROD) assay is widely used to confirm functional CYP1 activity (Chang T K and Waxman D J, “Enzymatic Analysis of cDNA-Expressed Human CYP1A1, CYP1A2, and CYP1B1 with 7-Ethoxyresorufin as Substrate”, Methods Mol. Biol., 320: 85-90, 2006, the contents of which are incorporated herein by reference). The assay determines O-dealkylation of 7-ethoxyresorufin by CYP1A1, CYP1A2, and CYP1B1 to generate the enzymatic product resorufin, which is monitored continuously by fluorescence emission at 580 nm. […]

[5] = substrate: CCOc1ccc2nc3ccc(=O)cc-3oc2c1; type: cell-based, human; settings: other: fluorogenic substrate
Protocol: as §1, §2

## O=P1(N(CCCl)CCCl)NCCCO1 (stereo not drawn) [cyclophosphamide]
[1]
  Toxicity in the CHO cytotoxicity assay at highest concentration: non-toxic

## COc1cc(/C=C/c2ccc(OC)cc2OC)cc(OC)c1 [tetramethoxystilbene]
[2]
  % CYP1B1 substrate inhibition, accuracy (predicted versus actual): 98%
[3]
  Specific activity, CHO/CYP1A1, Luciferin-CEE: 20 ± 5 pmol resorufin or luciferin min^−1 mg protein^−1
[4]
  Specific activity, CHO/CYP1A1, ethoxyresorufin: 26 ± 4 pmol resorufin or luciferin min^−1 mg protein^−1

B1: CYP1A1 (Homo sapiens) (protein)
chain: MLFPISMSATEFLLASVIFCLVFWVIRASRPQVPKGLKNPPGPWGWPLIGHMLTLGKNPHLALSRMSQQYGDVLQIRIGSTPVVVLSGLDTIRQALVRQGDDFKGRPDLYTFTLISNGQSMSFSPDSGPVWAARRRLAQNGLKSFSIASDPASSTSCYLEEHVSKEAEVLISTLQELMAGPGHFNPYRYVVVSVTNVICAICFGRRYDHNHQELLSLVNLNNNFGEVVGSGNPADFIPILRYLPNPSLNAFKDLNEKFYSFMQKMVKEHYKTFEKGHIRDITDSLIEHCQEKQLDENANVQLSDEKIINIVLDLFGAGFDTVTTAISWSLMYLVMNPRVQRKIQEELDTVIGRSRRPRLSDRSHLPYMEAFILETFRHSSFVPFTIPHSTTRDTSLKGFYIPKGRCVFVNQWQINHDQKLWVNPSEFLPERFLTPDGAIDKVLSEKVIIFGMGKRKCIGETIARWEVFLFLAILLQRVEFSVPLGVKVDMTPIYGLTMKHACCEHFQMQLRS
[5]
  Km: Ethoxyresorufin for CYP1A1and CYP1B1 Km ~0.27 μmol dm^−3 μmol dm^−3

B2: CYP1B1 (Homo sapiens) (protein)
chain: MGTSLSPNDPWPLNPLSIQQTTLLLLLSVLATVHVGQRLLRQRRRQLRSAPPGPFAWPLIGNAAAVGQAAHLSFARLARRYGDVFQIRLGSCPIVVLNGERAIHQALVQQGSAFADRPAFASFRVVSGGRSMAFGHYSEHWKVQRRAAHSMMRNFFTRQPRSRQVLEGHVLSEARELVALLVRGSADGAFLDPRPLTVVAVANVMSAVCFGCRYSHDDPEFRELLSHNEEFGRTVGAGSLVDVMPWLQYFPNPVRTVFREFEQLNRNFSNFILDKFLRHCESLRPGAAPRDMMDAFILSAEKKAAGDSHGGGARLDLENVPATITDIFGASQDTLSTALQWLLLLFTRYPDVQTRVQAELDQVVGRDRLPCMGDQPNLPYVLAFLYEAMRFSSFVPVTIPHATTANTSVLGYHIPKDTVVFVNQWSVNHDPLKWPNPENFDPARFLDKDGLINKDLTSRVMIFSVGKRRCIGEELSKMQLFLFISILAHQCDFRANPNEPAKMNFSYGLTIKPKSFKVNVTLRESMELLDSAVQNLQAKETCQ
[5]
  Km: Ethoxyresorufin for CYP1A1and CYP1B1 Km ~0.27 μmol dm^−3 μmol dm^−3
